BindingDB's records for doi:10.1021/acs.jmedchem.9b02176 (Glaxosmithkline, 2020)

Assays:
[1] = Inhibition of NS5A in HCV genotype 1a infected in […] cells assessed as reduction in viral replication incubated for 48 hrs by luciferase reporter gene assay
[2] = Inhibition of NS5A in HCV genotype 1b infected in […] cells assessed as reduction in viral replication incubated for 48 hrs by luciferase reporter gene assay
[3] = Inhibition of NS5A in HCV genotype 2a con infected in […] cells assessed as reduction in viral replication incubated for 48 hrs by luciferase reporter gene assay
[4] = Inhibition of NS5A in HCV genotype 3a con infected in […] cells assessed as reduction in viral replication incubated for 48 hrs by luciferase reporter gene assay
[5] = Inhibition of NS5A in patient-derived HCV genotype 2a infected in […] cells assessed as reduction in viral replication incubated for 48 hrs by luciferase reporter gene assay
[6] = Inhibition of NS5A in patient-derived HCV genotype 3a infected in […] cells assessed as reduction in viral replication incubated for 48 hrs by luciferase reporter gene assay

Row | EC50 [1] | EC50 [2] | EC50 [3] | EC50 [4] | EC50 [5] | EC50 [6] | SMILES
1 | 0.013 nM | 0.006 nM | 0.97 nM |  |  |  | COC(=O)N[C@H](C(=O)N1[C@H](c2ncc(-c3ccc4c(c3)-c3ccc(-c5cnc([C@@H]6C[C@@H]7CCC[C@@H]7N6C(=O)[C@@H](NC(=O)OC)[C@@H](C)O)[nH]5)cc3-4)[nH]2)C[C@@H]2CCC[C@@H]21)C(C)C
2 | 0.009 nM |  | 12.2 nM |  |  |  | COC(=O)N[C@H](C(=O)N1CCC[C@H]1c1ncc(-c2ccc3c(c2)-c2ccc(-c4cnc([C@@H]5C[C@@H]6CCCC[C@@H]6N5C(=O)[C@@H](NC(=O)OC)C(C)C)[nH]4)cc2-3)[nH]1)C(C)C
3 | 0.029 nM | 0.017 nM |  |  |  |  | COC(=O)N[C@H](C(=O)N1[C@H](c2ncc(-c3ccc4c(c3)C(F)(F)c3cc(-c5cnc([C@@H]6C[C@@H]7CCC[C@@H]7N6C(=O)[C@@H](NC(=O)OC)[C@@H](C)OC)[nH]5)ccc3-4)[nH]2)C[C@@H]2CCC[C@@H]21)[C@@H](C)OC
4 | 0.017 nM | 0.015 nM |  |  |  |  | COC(=O)N[C@H](C(=O)N1[C@H](c2ncc(-c3ccc4c(c3)CCc3cc(-c5cnc([C@@H]6C[C@@H]7CCC[C@@H]7N6C(=O)[C@@H](NC(=O)OC)[C@@H](C)OC)[nH]5)ccc3-4)[nH]2)C[C@@H]2CCC[C@@H]21)[C@@H](C)OC
5 | 0.02 nM |  | 3.33 nM |  |  |  | COC(=O)N[C@H](C(=O)N1[C@H](c2ncc(-c3ccc4c(c3)-c3ccc(-c5cnc([C@@H]6C[C@@H]7CCCC[C@@H]7N6C(=O)[C@@H](NC(=O)OC)C(C)C)[nH]5)cc3-4)[nH]2)C[C@@H]2CCCC[C@@H]21)C(C)C
6 | 0.044 nM | 0.008 nM | 32 nM | < 0.025 nM | 48.8 nM | 0.018 nM | COC(=O)N[C@H](C(=O)N1CCC[C@H]1c1ncc(-c2ccc3c(c2)-c2ccc(-c4cnc([C@@H]5CCCN5C(=O)[C@@H](NC(=O)OC)C(C)C)[nH]4)cc2-3)[nH]1)C(C)C
7 | 0.01 nM | 0.008 nM | 0.115 nM | 0.02 nM | 0.664 nM | 0.003 nM | COC(=O)N[C@H](C(=O)N1[C@H](c2ncc(-c3ccc4c(c3)-c3ccc(-c5cnc([C@@H]6C[C@@H]7CCC[C@@H]7N6C(=O)[C@@H](NC(=O)OC)[C@@H](C)OC)[nH]5)cc3-4)[nH]2)C[C@@H]2CCC[C@@H]21)[C@@H](C)OC
8 | 0.248 nM | 0.081 nM | 0.327 nM |  |  |  | CN(C)[C@@H](C(=O)N1CCC[C@H]1c1ncc(-c2ccc3c(c2)-c2ccc(-c4cnc([C@@H]5CCCN5C(=O)[C@@H](c5ccccc5)N(C)C)[nH]4)cc2-3)[nH]1)c1ccccc1
9 | 0.081 nM | 0.028 nM |  |  |  |  | COC(=O)N[C@H](C(=O)N1[C@H](c2ncc(-c3ccc4c(c3)S(=O)(=O)c3cc(-c5cnc([C@@H]6C[C@@H]7CCC[C@@H]7N6C(=O)[C@@H](NC(=O)OC)[C@@H](C)OC)[nH]5)ccc3-4)[nH]2)C[C@@H]2CCC[C@@H]21)[C@@H](C)OC
10 | 0.055 nM | 0.009 nM | 8.91 nM |  |  |  | COC(=O)N[C@@H](CO)C(=O)N1[C@H](c2ncc(-c3ccc4c(c3)-c3ccc(-c5cnc([C@@H]6C[C@@H]7CCC[C@@H]7N6C(=O)[C@H](CO)NC(=O)OC)[nH]5)cc3-4)[nH]2)C[C@@H]2CCC[C@@H]21
11 | 0.02 nM |  | 4.37 nM |  |  |  | COC(=O)N[C@@H](CO)C(=O)N1[C@H](c2ncc(-c3ccc4c(c3)-c3ccc(-c5cnc([C@@H]6C[C@@H]7CCC[C@@H]7N6C(=O)[C@@H](NC(=O)OC)C(C)C)[nH]5)cc3-4)[nH]2)C[C@@H]2CCC[C@@H]21
12 | 0.01 nM |  | 4.52 nM |  |  |  | COC(=O)N[C@H](C(=O)N1[C@H](c2ncc(-c3ccc4c(c3)-c3ccc(-c5cnc([C@@H]6C[C@@H]7CCC[C@@H]7N6C(=O)[C@@H](NC(=O)OC)C(C)C)[nH]5)cc3-4)[nH]2)C[C@@H]2CCC[C@@H]21)C(C)C
13 | 0.053 nM | 0.014 nM | 1.47 nM |  |  |  | COC(=O)N[C@H](C(=O)N1CCC[C@H]1c1ncc(-c2ccc3c(c2)-c2ccc(-c4cnc([C@@H]5CCCN5C(=O)[C@@H](c5ccccc5)N(C)C)[nH]4)cc2-3)[nH]1)C(C)C
14 | 0.302 nM | 0.01 nM | 35.1 nM |  |  |  | COC(=O)N[C@H](C(=O)N1[C@H](c2ncc(-c3ccc4c(c3)-c3ccc(-c5cnc([C@@H]6C[C@@H]7CCC[C@@H]7N6C(=O)[C@@H](NC(=O)OC)[C@H](C)O)[nH]5)cc3-4)[nH]2)C[C@@H]2CCC[C@@H]21)[C@H](C)O
15 | 0.03 nM | 0.02 nM |  |  |  |  | COC(=O)N[C@H](C(=O)N1[C@H](c2ncc(-c3ccc4c(c3)Cc3ccc(-c5cnc([C@@H]6C[C@@H]7CCC[C@@H]7N6C(=O)[C@@H](NC(=O)OC)[C@@H](C)OC)[nH]5)cc3C4)[nH]2)C[C@@H]2CCC[C@@H]21)[C@@H](C)OC
16 | 0.041 nM | 0.022 nM |  |  |  |  | COC(=O)N[C@H](C(=O)N1[C@H](c2ncc(-c3ccc4c(c3)Cc3cc(-c5cnc([C@@H]6C[C@@H]7CCC[C@@H]7N6C(=O)[C@@H](NC(=O)OC)[C@@H](C)OC)[nH]5)ccc3-4)[nH]2)C[C@@H]2CCC[C@@H]21)[C@@H](C)OC
17 | 0.148 nM | 0.028 nM |  |  |  |  | COC(=O)N[C@H](C(=O)N1[C@H](c2ncc(-c3ccc4c5ccc(-c6cnc([C@@H]7C[C@@H]8CCC[C@@H]8N7C(=O)[C@@H](NC(=O)OC)[C@@H](C)OC)[nH]6)cc5n(C)c4c3)[nH]2)C[C@@H]2CCC[C@@H]21)[C@@H](C)OC
18 | 0.014 nM | 0.008 nM | 0.188 nM |  | 1.03 nM | 0.006 nM | COC(=O)N[C@H](C(=O)N1[C@H](c2ncc(-c3ccc4c(c3)-c3ccc(-c5cnc([C@@H]6C[C@@H]7CCC[C@@H]7N6C(=O)[C@@H](NC(=O)OC)[C@@H](C)OC)[nH]5)cc3-4)[nH]2)C[C@@H]2CCC[C@@H]21)[C@@H](C)O
19 | 0.012 nM | 0.007 nM |  |  |  |  | COC(=O)N[C@H](C(=O)N1[C@H](c2ncc(-c3ccc4c(c3)Oc3ccc(-c5cnc([C@@H]6C[C@@H]7CCC[C@@H]7N6C(=O)[C@@H](NC(=O)OC)[C@@H](C)OC)[nH]5)cc3O4)[nH]2)C[C@@H]2CCC[C@@H]21)[C@@H](C)OC
20 | 0.011 nM |  | 0.141 nM | 0.018 nM | 1.06 nM | 0.005 nM | COC(=O)N[C@H](C(=O)N1[C@H](c2ncc(-c3ccc4c(c3)-c3ccc(-c5cnc([C@@H]6C[C@@H]7CCC[C@@H]7N6C(=O)[C@@H](NC(=O)OC)[C@@H](C)O)[nH]5)cc3-4)[nH]2)C[C@@H]2CCC[C@@H]21)[C@@H](C)O

Row | SMILES | EC50 [1] | EC50 [2] | EC50 [3] | EC50 [4] | EC50 [5] | EC50 [6]
21 | COC(=O)N[C@H](C(=O)N1CCC[C@H]1c1nc(-c2ccc(-c3ccc(-c4c[nH]c([C@@H]5CCCN5C(=O)[C@@H](NC(=O)OC)C(C)C)n4)cc3)cc2)c[nH]1)C(C)C [BMS-790052] | 0.032 nM | 0.008 nM | 52.8 nM | 0.412 nM | 49.4 nM | 0.115 nM
